# Reference: patent publication US12612387B2, “RAS inhibitors and methods of using the same” (Jazz Pharmaceuticals Ireland Limited, priority 2020, dated 2026)
# How the values were obtained:
# K-RAS G12D = molecular target: T1, K-RAS G12D (Homo sapiens, UniProt P01116, G12D); experiment: Compound depletion assay, K-RAS G12D; type: binding; settings: G12D protein 20 μM, compound 8 μM, 25° C.
# T1 construct: His tag; purchased Stratech
# Experimental: (§1) Compound Depletion Assay Method
# (§2) Lyophilized human K-RAS (12 Cys) protein (His tag) and human K-RAS (12 Asp) protein (His tag) were purchased from Stratech and reconstituted at 30 μM in water. The protein concentration of K-RAS G12C and K-RAS G12D was adjusted to 20 μM in K-RAS Assay Buffer (20 mM HEPES pH 7.5, 150 mM NaCl, 1 mM MgCl2). A 49 μl aliquot of protein solution was transferred to 1.5 ml eppendorfs and incubated at room temperature for 10 minutes. A 1 μl aliquot of compound solution in DMSO was added to the protein solutions in the 1.5 ml eppendorfs to initiate the reaction, with a final assay compound concentration of 8 μM. Reactions were agitated at 25° C., 700 rpm. At each time point (0, 30, 180, 360, 1440 minutes), 10 μl of the reaction mixture was removed, added to 30 μl quench solution (0.3% formic acid, 75 nM propranolol in acetonitrile) to stop the reaction and stored at 4° C. Once all reactions were quenched, the samples were centrifuged at 16000 g for 10 minutes to pellet the protein and salts. A 10 μl aliquot of supernatant containing compound was diluted in 50:50 acetonitrile:H2O in a 96 well plate. The plates were heat sealed and the samples analysed by LC-MS/MS to determine the concentration of compound remaining in the samples. To determine the reaction progress, the compound signal was normalized to the internal standard signal (propranolol). The decrease in free compound concentration is shown as a percentage over time, with the […] at time zero fixed at one hundred percent. Compound is assumed to be completely depleted when no longer detectable with a double blank sample as reference.
# K-RAS G12C = molecular target: T2, K-RAS G12C (Homo sapiens, UniProt P01116, G12C); experiment: Compound depletion assay, K-RAS G12C; type: binding; settings: G12C protein 20 μM, compound 8 μM, 25° C.
# T2 construct: His tag; purchased Stratech
# Experimental: as §1, §2
# T1 sequence (P01116 1-188 isoform P01116-2 G12D): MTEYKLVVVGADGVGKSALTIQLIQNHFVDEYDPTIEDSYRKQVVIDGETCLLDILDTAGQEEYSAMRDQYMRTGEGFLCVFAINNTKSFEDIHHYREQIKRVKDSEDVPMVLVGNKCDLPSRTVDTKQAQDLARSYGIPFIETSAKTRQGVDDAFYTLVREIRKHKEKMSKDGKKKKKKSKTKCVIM
# T2 sequence (P01116 1-188 isoform P01116-2 G12C): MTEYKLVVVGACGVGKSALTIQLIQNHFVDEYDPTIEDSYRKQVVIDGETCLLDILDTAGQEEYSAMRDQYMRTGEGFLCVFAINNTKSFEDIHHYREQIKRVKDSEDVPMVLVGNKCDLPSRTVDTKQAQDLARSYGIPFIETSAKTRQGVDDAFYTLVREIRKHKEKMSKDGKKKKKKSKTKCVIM
3 hr Category (compound remaining at timepoint) (K-RAS G12D),24 hr Category (compound remaining at timepoint) (K-RAS G12D),3 hr Category (compound remaining at timepoint) (K-RAS G12C),24 hr Category (compound remaining at timepoint) (K-RAS G12C),30 min Category (compound remaining at timepoint) (K-RAS G12D),6 hr Category (compound remaining at timepoint) (K-RAS G12D),30 min Category (compound remaining at timepoint) (K-RAS G12C),6 hr Category (compound remaining at timepoint) (K-RAS G12C),SMILES
A (≥70% compound remaining at timepoint),A (≥70% compound remaining at timepoint),A (≥70% compound remaining at timepoint),A (≥70% compound remaining at timepoint),–,–,–,–,"C=CC(=O)N1CCN(c2cc(C(=O)N3c4ccccc4CCC3C)nc(OC[C@@H]3CCCN3C)n2)CC1 (stereo partly drawn) [Example 15, 1-[4-[6-(2-methyl-3,4-dihydro-2H-quinoline-1-carbonyl)-2-[[(2S)-1-methylpyrrolidin-2-yl]methoxy]pyrimidin-4-yl]piperazin-1-yl]prop-2-en-1-one]"
A (≥70% compound remaining at timepoint),A (≥70% compound remaining at timepoint),A (≥70% compound remaining at timepoint),A (≥70% compound remaining at timepoint),–,–,–,–,"C=CC(=O)N1CCN(c2cc(C(=O)N(C)c3cccc4ccccc34)nc(OC[C@@H]3CCCN3C)n2)CC1 [Example 13, N-methyl-2-[[(2S)-1-methylpyrrolidin-2-yl]methoxy]-N-(1-naphthyl)-6-(4-prop-2-enoylpiperazin-1-yl)pyrimidine-4-carboxamide]"
A (≥70% compound remaining at timepoint),–,A (≥70% compound remaining at timepoint),–,A (≥70% compound remaining at timepoint),A (≥70% compound remaining at timepoint),A (≥70% compound remaining at timepoint),A (≥70% compound remaining at timepoint),"C=CC(=O)N1CCN(c2cc(C(=O)Nc3cc(O)cc4ccccc34)nc(-c3ccncc3)n2)C[C@@H]1CC#N [Example 26, 6-[(3S)-3-(cyanomethyl)-4-prop-2-enoyl-piperazin-1-yl]-N-(3-hydroxy-1-naphthyl)-2-(4-pyridyl)pyrimidine-4-carboxamide]"
A (≥70% compound remaining at timepoint),–,C (≤30% compound remaining at timepoint),–,A (≥70% compound remaining at timepoint),A (≥70% compound remaining at timepoint),C (≤30% compound remaining at timepoint),C (≤30% compound remaining at timepoint),"C=CC(=O)N1CCN(c2cc(C(=O)Nc3cc(O)cc4ccccc34)nc(OC[C@@H]3CCCN3CCO)n2)C[C@@H]1CC#N [Example 53, 6-[(3S)-3-(cyanomethyl)-4-prop-2-enoyl-piperazin-1-yl]-2-[[(2S)-1-(2-hydroxyethyl)pyrrolidin-2-yl]methoxy]-N-(3-hydroxy-1-naphthyl)pyrimidine-4-carboxamide]"
A (≥70% compound remaining at timepoint),–,A (≥70% compound remaining at timepoint),–,A (≥70% compound remaining at timepoint),A (≥70% compound remaining at timepoint),A (≥70% compound remaining at timepoint),A (≥70% compound remaining at timepoint),"C=CC(=O)N1CCN(c2cc(C(=O)Nc3cc(O)cc4ccccc34)nc(-c3ccc4cnn(C)c4c3)n2)C[C@@H]1CC#N [Example 32, 6-[(3S)-3-(cyanomethyl)-4-prop-2-enoyl-piperazin-1-yl]-N-(3-hydroxy-1-naphthyl)-2-(1-methylindazol-6-yl)pyrimidine-4-carboxamide]"
A (≥70% compound remaining at timepoint),–,C (≤30% compound remaining at timepoint),–,A (≥70% compound remaining at timepoint),A (≥70% compound remaining at timepoint),C (≤30% compound remaining at timepoint),C (≤30% compound remaining at timepoint),"C=CC(=O)N1CCN(c2cc(C(=O)Nc3cc(O)cc4ccccc34)nc(OCC3CCCN(C)C3)n2)C[C@@H]1CC#N (stereo partly drawn) [Example 50, 6-[(3S)-3-(cyanomethyl)-4-prop-2-enoyl-piperazin-1-yl]-N-(3-hydroxy-1-naphthyl)-2-[(1-methyl-3-piperidyl)methoxy]pyrimidine-4-carboxamide]"
A (≥70% compound remaining at timepoint),–,C (≤30% compound remaining at timepoint),–,A (≥70% compound remaining at timepoint),A (≥70% compound remaining at timepoint),C (≤30% compound remaining at timepoint),C (≤30% compound remaining at timepoint),"C=CC(=O)N1CCN(c2cc(C(=O)Nc3cc(O)cc4ccccc34)nc(OCC3CN(C)CCO3)n2)C[C@@H]1CC#N (stereo in doubt) [Example 52, 6-[(3S)-3-(cyanomethyl)-4-prop-2-enoyl-piperazin-1-yl]-N-(3-hydroxy-1-naphthyl)-2-[[(2R)-4-methylmorpholin-2-yl]methoxy]pyrimidine-4-carboxamide]"

SMILES,3 hr Category (compound remaining at timepoint) (K-RAS G12D),24 hr Category (compound remaining at timepoint) (K-RAS G12D),3 hr Category (compound remaining at timepoint) (K-RAS G12C),24 hr Category (compound remaining at timepoint) (K-RAS G12C),30 min Category (compound remaining at timepoint) (K-RAS G12D),6 hr Category (compound remaining at timepoint) (K-RAS G12D),30 min Category (compound remaining at timepoint) (K-RAS G12C),6 hr Category (compound remaining at timepoint) (K-RAS G12C)
"C=CC(=O)N1CCN(c2cc(C(=O)Nc3cc(O)cc4ccccc34)nc(-c3cccc4cnn(C)c34)n2)C[C@@H]1CC#N [Example 39, 6-[(3S)-3-(cyanomethyl)-4-prop-2-enoyl-piperazin-1-yl]-N-(3-hydroxy-1-naphthyl)-2-(1-methylindazol-7-yl)pyrimidine-4-carboxamide]",A (≥70% compound remaining at timepoint),–,B (30%-70% compound remaining at timepoint),–,A (≥70% compound remaining at timepoint),A (≥70% compound remaining at timepoint),A (≥70% compound remaining at timepoint),B (30%-70% compound remaining at timepoint)
"C=CC(=O)N1CCN(c2cc(C(=O)Nc3cc(O)cc4ccccc34)nc(N3CCN(CCO)CC3)n2)C[C@@H]1CC#N [Example 37, 6-[(3S)-3-(cyanomethyl)-4-prop-2-enoyl-piperazin-1-yl]-2-[4-(2-hydroxyethyl)piperazin-1-yl]-N-(3-hydroxy-1-naphthyl)pyrimidine-4-carboxamide]",A (≥70% compound remaining at timepoint),–,C (≤30% compound remaining at timepoint),–,A (≥70% compound remaining at timepoint),A (≥70% compound remaining at timepoint),B (30%-70% compound remaining at timepoint),C (≤30% compound remaining at timepoint)
